pIC50: −log10 of the molar value.
Experiments:
[1] = tested on: LNCaP; assay: Cytotoxicity against human LNCaP cells incubated for 3 days by Cell-Titer Glo assay; format: functional; conditions: 72 h, time 3 day
[2] = target: T1, Amine oxidase [flavin-containing] B (Homo sapiens, UniProt P27338); assay: Inhibition of recombinant human MAO-B expressed in baculovirus infected BTI insect cells; format: cell-based
T1 sequence (P27338 whole entry): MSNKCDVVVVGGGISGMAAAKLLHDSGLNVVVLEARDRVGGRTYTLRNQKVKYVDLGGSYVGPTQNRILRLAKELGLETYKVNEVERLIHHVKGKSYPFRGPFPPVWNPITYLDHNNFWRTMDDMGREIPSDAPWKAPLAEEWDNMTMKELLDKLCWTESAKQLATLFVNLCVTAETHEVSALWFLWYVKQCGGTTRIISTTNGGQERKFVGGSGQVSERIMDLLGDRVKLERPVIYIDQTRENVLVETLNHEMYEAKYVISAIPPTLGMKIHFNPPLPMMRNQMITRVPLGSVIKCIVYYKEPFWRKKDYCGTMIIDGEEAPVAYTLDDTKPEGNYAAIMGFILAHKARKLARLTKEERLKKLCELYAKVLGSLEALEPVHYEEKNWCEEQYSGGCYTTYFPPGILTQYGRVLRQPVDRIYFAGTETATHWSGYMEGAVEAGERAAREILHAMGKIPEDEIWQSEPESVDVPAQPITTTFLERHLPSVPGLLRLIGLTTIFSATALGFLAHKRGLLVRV

[3] = target: T2, Amine oxidase [flavin-containing] A (Homo sapiens, UniProt P21397); assay: Inhibition of recombinant human MAO-A expressed in baculovirus infected BTI insect cells
T2 sequence (P21397 whole entry): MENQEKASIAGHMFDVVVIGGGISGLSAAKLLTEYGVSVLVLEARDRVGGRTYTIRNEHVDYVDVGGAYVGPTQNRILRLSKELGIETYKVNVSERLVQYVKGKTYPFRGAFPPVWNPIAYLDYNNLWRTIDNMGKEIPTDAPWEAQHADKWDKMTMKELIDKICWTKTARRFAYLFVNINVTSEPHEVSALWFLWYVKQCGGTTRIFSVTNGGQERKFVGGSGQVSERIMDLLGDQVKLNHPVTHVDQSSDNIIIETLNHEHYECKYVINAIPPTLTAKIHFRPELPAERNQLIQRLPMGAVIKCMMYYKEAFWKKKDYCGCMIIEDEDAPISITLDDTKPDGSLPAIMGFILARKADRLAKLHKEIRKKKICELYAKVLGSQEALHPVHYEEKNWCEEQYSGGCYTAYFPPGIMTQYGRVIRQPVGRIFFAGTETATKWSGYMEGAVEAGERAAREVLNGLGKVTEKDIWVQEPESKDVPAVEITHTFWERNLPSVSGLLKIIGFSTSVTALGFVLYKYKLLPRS

[4] = tested on: LNCaP C4-2B; assay: Cytotoxicity against human LNCaP C4-2B cells incubated for 3 days by Cell-Titer Glo assay; format: functional; conditions: 72 h, time 3 day

Row | SMILES | CC50 [1] [µM] | pIC50 [2] | pIC50 [3] | CC50 [4] [µM]
1 | C#CCN(C)CCCOc1cc(NS(C)(=O)=O)c(Cl)cc1Cl | 103 | 4.16 | 7.19 | 119
2 | C#CCN(C)CCCOc1cc(NC(=O)c2cc[nH]n2)c(Cl)cc1Cl | 15.8 | < 3.30 | 4.59 | 32.5
3 | C#CCN(C)CCCOc1cc(O)c(Cl)cc1Cl | 35.5 | 6.04 | 7.61 | 30.2
4 | C#CCN(CCO)CCCOc1cc(N)c(Cl)cc1Cl | 55.8 | < 3.30 | 6.12 | 43.9
5 | C#CCN(C)C[C@@H](O)COc1cc(N)c(Cl)cc1Cl | 78.9 | < 3.30 | 7.15 | 73.7
6 | C#CCN(C)CCCOc1cc(NC(C)=O)c(Cl)cc1Cl | 97.3 | 3.45 | 5.06 | 97
7 | C#CCN(C)CCCOc1cc(C#N)c(Cl)cc1Cl | 65.4 | 4.42 | 6.99 | 72.4
8 | C#CCN(CCO)CCCOc1ccc(Cl)cc1Cl | 35.7 | < 3.30 | 6.10 | 46.5
9 | C#CCN(C)CCCOc1cc(C)c(Cl)cc1Cl | 37 | 3.91 | 5.17 | 66
10 | C#CCN(C)CCCOc1cc(NC=O)c(Cl)cc1Cl | 85.9 | 4.60 | 5.18 | 84
11 | C#CCN(C)C[C@H](O)COc1cc(N)c(Cl)cc1Cl | 78.9 | < 3.30 | 7.15 | 73.7
12 | C#CCN(C)CCCOc1cc(N)c(Cl)cc1Cl | 31.1 | < 3.30 | 7.83 | 31.6
13 | C#CCN(C)CCCOc1ccc(Cl)cc1Cl [CLORGILINE] | 51.5 |  |  | 53.5
14 | NNCCc1ccccc1 [PHENELZINE] | 121 |  |  | 157

From ChEMBL document CHEMBL5325495, “Synthesis and anti-cancer potential of potent peripheral MAOA inhibitors designed to limit blood:brain penetration” (Bioorg Med Chem, 2023)
